Measured values from patent US10344017B2, “Pyrrolcarboxamide derivatives for the inhibition of ERK5” (CANCER RESEARCH TECHNOLOGY LIMITED, priority 2014, dated 2019).
Where two headings read alike, the source gives them in different places.

Biological target: T1, ERK5 (Homo sapiens, UniProt Q13164)
T1 construct: made in house
Assay: ERK5 IMAP assay (fluorescence polarisation)
Type: biochemical
Experimental: The assay buffer was prepared using 0.01% Tween®-20 5× stock, supplied as part of IMAP™ FP Progressive Binding System Kit (Molecular Devices R7436) and diluted to 1× using miliQ H2O. 1 μL of a 1M DTT stock was added for every 1 mL of 1× assay buffer to give a final concentration of 1 mM DTT.
ERK5 was expressed and purified at CRT-DL by Leon Pang and Sue Young. Aliquots were stored at −80° C. The ERK5 working solution was used at a […] final dilution in assay buffer. […] For 1 plate, […] of ERK5 stock was added to 2262 μL of 1× assay buffer.
To prepare the IMAP™ binding solution for one plate 20.5 μL of IMAP™ binding reagent stock, 1476 μL of 1× binding buffer A (60%), and 984 μL of binding buffer B (40%) (IMAP™ FP Progressive screening express kit (Molecular Devices R8127) was added to 9819.5 μL of milliQ H2O.
1 μL of inhibitor (in 60:40 H2O/DMSO) or 60:40 H2O/DMSO (for controls and blanks) were dry-spotted into the relevant wells of a 384-well assay plate using the MATRIX PlateMate® Plus. 5 μL of ERK5 working solution was added to test and control wells, and 5 μL of 1× assay buffer added to blanks; 4 μL of ATP/substrate working solution was added to all wells using a Matrix multichannel pipette. The plate was sealed using DMSO resistant clear seal and incubated for 2 h at 37° C. 1 μL of the kinase reaction mixture from the first plate was dry spotted into a second 384-well assay plate using the MATRIX PlateMate® Plus. 9 μL of assay buffer was added, followed by 30 μL of IMAP™ binding solution using a multichannel pipette. The plate was incubated at RT in darkness for 2 h. The assay plate was then read on an Analyst HT plate reader (Molecular Devices) using the settings described below: […]

[1] = average (e.g. geometric mean) where more than one data point, read-out: ERK5 IC50

T1 sequence (Q13164 whole entry): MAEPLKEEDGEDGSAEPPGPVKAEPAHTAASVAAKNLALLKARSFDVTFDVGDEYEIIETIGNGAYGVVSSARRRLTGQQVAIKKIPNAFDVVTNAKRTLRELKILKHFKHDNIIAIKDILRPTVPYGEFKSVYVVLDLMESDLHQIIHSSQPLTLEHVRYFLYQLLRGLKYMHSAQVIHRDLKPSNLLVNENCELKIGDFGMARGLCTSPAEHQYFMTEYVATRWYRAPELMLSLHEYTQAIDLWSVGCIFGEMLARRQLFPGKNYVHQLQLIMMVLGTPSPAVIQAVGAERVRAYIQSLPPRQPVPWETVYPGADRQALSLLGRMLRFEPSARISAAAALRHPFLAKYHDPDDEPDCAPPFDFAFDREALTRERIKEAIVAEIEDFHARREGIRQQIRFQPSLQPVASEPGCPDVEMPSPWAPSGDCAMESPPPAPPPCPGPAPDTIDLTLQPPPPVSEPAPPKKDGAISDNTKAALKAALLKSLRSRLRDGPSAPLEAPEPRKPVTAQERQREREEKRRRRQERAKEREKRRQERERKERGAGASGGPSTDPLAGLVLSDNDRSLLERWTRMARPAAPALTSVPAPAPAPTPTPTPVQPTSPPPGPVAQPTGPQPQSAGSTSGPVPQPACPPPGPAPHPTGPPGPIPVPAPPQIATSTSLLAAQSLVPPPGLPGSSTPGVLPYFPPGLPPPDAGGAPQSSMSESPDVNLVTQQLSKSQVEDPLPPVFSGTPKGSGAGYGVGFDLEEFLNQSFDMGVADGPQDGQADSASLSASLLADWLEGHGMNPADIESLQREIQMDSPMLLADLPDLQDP

SMILES	IC50 [1] [nM]	IC50 [nM]
CN(c1ncc(NC(=O)c2cc(C(=O)c3c(Cl)ccc(Cl)c3F)c[nH]2)cn1)C1CCNCC1 [Example 106, 4-(3,6-Dichloro-2-fluorobenzoyl)-N-(2-(methyl(piperidin-4-yl)amino)pyrimidin-5-yl)-1H-pyrrole-2-carboxamide]	20	–
COc1ccc(Cl)c(C(=O)c2c[nH]c(C(=O)Nc3ccc(CN4CCOCC4)nc3)c2)c1F [Example 116, 4-(6-Chloro-2-fluoro-3-methoxybenzoyl)-N-(6-(morpholinomethyl)pyridin-3-yl)-1H-pyrrole-2-carboxamide]	21.8	–
COc1ccc(Cl)c(C(=O)c2c[nH]c(C(=O)Nc3ccc(CC4CCNCC4)nc3)c2)c1F [Example 117, 4-(6-Chloro-2-fluoro-3-methoxybenzoyl)-N-(6-(piperidin-4-ylmethyl)pyridin-3-yl)-1H-pyrrole-2-carboxamide]	9.2	–
Cc1ccc(NC(=O)c2cc(C(=O)c3c(F)cccc3Cl)c[nH]2)c[n+]1[O-] [Example 118, 5-(4-(2-Chloro-6-fluorobenzoyl)-1H-pyrrole-2-carboxamido)-2-methylpyridine 1-oxide]	1310	–
O=C(Nc1ccc(CO)nc1)c1cc(C(=O)c2c(F)cccc2Cl)c[nH]1 [Example 119, 4-(2-chloro-6-fluorobenzoyl)-N-(6-(hydroxymethyl)pyridin-3-yl)-1H-pyrrole-2-carboxamide]	530	–
O=C(Nc1ccc(CO)nc1)c1cc(C(=O)c2c(Cl)ccc(Cl)c2F)c[nH]1 [Example 120, 4-(3,6-dichloro-2-fluorobenzoyl)-N-(6-(hydroxymethyl)pyridin-3-yl)-1H-pyrrole-2-carboxamide]	200	–
O=C(Nc1ccncc1)c1cc(C(=O)c2c(F)cccc2F)c[nH]1 [Example 121, 4-(2,6-Difluorobenzoyl)-N-(pyridin-4-yl)-1H-pyrrole-2-carboxamide]	–	900
O=C(NC1CCNC1)c1cc(C(=O)c2c(F)cccc2F)c[nH]1 (stereo not shown) [Example 125, 4-(2,6-Difluorobenzoyl)-N-(pyrrolidin-3-yl)-1H-pyrrole-2-carboxamide]	31000	–
O=C(Nc1cc[n+]([O-])cc1)c1cc(C(=O)c2c(F)cccc2F)c[nH]1 [Example 127, 4-(4-(2,6-Difluorobenzoyl)-1H-pyrrole-2-carboxamido)pyridine 1-oxide]	11500	–
O=C(Nc1ccc[n+]([O-])c1)c1cc(C(=O)c2c(F)cccc2F)c[nH]1 [Example 128, 3-(4-(2,6-Difluorobenzoyl)-1H-pyrrole-2-carboxamido)pyridine 1-oxide]	13800	–
O=C(Nc1ccncn1)c1cc(C(=O)c2c(F)cccc2F)c[nH]1 [Example 130, 4-(2,6-Difluorobenzoyl)-N-(pyrimidin-4-yl)-1H-pyrrole-2-carboxamide]	2140	–
O=C(Nc1ccncn1)c1cc(C(=O)c2cccc(Cl)c2Cl)c[nH]1 [Example 131, 4-(2,3-Dichlorobenzoyl)-N-(pyrimidin-4-yl)-1H-pyrrole-2-carboxamide]	2660	–
O=C(Nc1ccncn1)c1cc(C(=O)c2c(F)cccc2Cl)c[nH]1 [Example 132, 4-(2-Chloro-6-fluorobenzoyl)-N-(pyrimidin-4-yl)-1H-pyrrole-2-carboxamide]	1150	–
O=C(Nc1ccncn1)c1cc(C(=O)c2c(F)cccc2Br)c[nH]1 [Example 133, 4-(2-Bromo-6-fluorobenzoyl)-N-(pyrimidin-4-yl)-1H-pyrrole-2-carboxamide]	1800	–
Cc1cc(NC(=O)c2cc(C(=O)c3c(F)cccc3Cl)c[nH]2)cc(C)n1 [Example 134, 4-(2-Chloro-6-fluorobenzoyl)-N-(2,6-dimethylpyridin-4-yl)-1H-pyrrole-2-carboxamide]	368	–
Cc1cc(NC(=O)c2cc(C(=O)c3c(F)cccc3Br)c[nH]2)cc(C)n1 [Example 135, 4-(2-Bromo-6-fluorobenzoyl)-N-(2,6-dimethylpyridin-4-yl)-1H-pyrrole-2-carboxamide]	653	–
Cc1cc(NC(=O)c2cc(C(=O)c3c(F)cccc3Cl)c[nH]2)ccn1 [Example 136, 4-(2-Chloro-6-fluorobenzoyl)-N-(2-methylpyridin-4-yl)-1H-pyrrole-2-carboxamide]	401	–
Cc1cc(NC(=O)c2cc(C(=O)c3c(F)cccc3Br)c[nH]2)ccn1 [Example 137, 4-(2-Bromo-6-fluorobenzoyl)-N-(2-methylpyridin-4-yl)-1H-pyrrole-2-carboxamide]	1080	–
O=C(Nc1ccnnc1)c1cc(C(=O)c2c(F)cccc2Cl)c[nH]1 [Example 138, 4-(2-Chloro-6-fluorobenzoyl)-N-(pyridazin-4-yl)-1H-pyrrole-2-carboxamide]	439	–

SMILES	IC50 [1] [nM]	IC50 [nM]
O=C(Nc1ccnnc1)c1cc(C(=O)c2c(F)cccc2Br)c[nH]1 [Example 139, 4-(2-Bromo-6-fluorobenzoyl)-N-(pyridazin-4-yl)-1H-pyrrole-2-carboxamide]	818	–
O=C(Nc1ccnc(Cl)n1)c1cc(C(=O)c2c(F)cccc2Cl)c[nH]1 [Example 140, 4-(2-Chloro-6-fluorobenzoyl)-N-(2-chloropyrimidin-4-yl)-1H-pyrrole-2-carboxamide]	4350	–
O=C(Nc1ccnc(Cl)n1)c1cc(C(=O)c2c(F)cccc2Br)c[nH]1 [Example 141, 4-(2-Bromo-6-fluorobenzoyl)-N-(2-chloropyrimidin-4-yl)-1H-pyrrole-2-carboxamide]	7760	–
Cc1cc(NC(=O)c2cc(C(=O)c3c(F)cccc3Cl)c[nH]2)nc(C)n1 [Example 142, 4-(2-Chloro-6-fluorobenzoyl)-N-(2,6-dimethylpyrimidin-4-yl)-1H-pyrrole-2-carboxamide]	4130	–
Cc1cc(NC(=O)c2cc(C(=O)c3c(F)cccc3Br)c[nH]2)nc(C)n1 [Example 143, 4-(2-Bromo-6-fluorobenzoyl)-N-(2,6-dimethylpyrimidin-4-yl)-1H-pyrrole-2-carboxamide]	4950	–
O=C(Nc1cncnc1)c1cc(C(=O)c2c(F)cccc2Br)c[nH]1 [Example 145, 4-(2-Bromo-6-fluorobenzoyl)-N-(pyrimidin-5-yl)-1H-pyrrole-2-carboxamide]	654	–
O=C(Nc1cc[nH]c(=O)n1)c1cc(C(=O)c2c(F)cccc2Cl)c[nH]1 [Example 146, 4-(2-Chloro-6-fluorobenzoyl)-N-(2-oxo-1,2-dihydropyrimidin-4-yl)-1H-pyrrole-2-carboxamide]	2940	–
O=C(Nc1cc[nH]c(=O)n1)c1cc(C(=O)c2c(F)cccc2Br)c[nH]1 [Example 147, 4-(2-Bromo-6-fluorobenzoyl)-N-(2-oxo-1,2-dihydropyrimidin-4-yl)-1H-pyrrole-2-carboxamide]	34200	–
Cc1ncccc1NC(=O)c1cc(C(=O)c2c(F)cccc2Cl)c[nH]1 [Example 148, 4-(2-Chloro-6-fluorobenzoyl)-N-(2-methylpyridin-3-yl)-1H-pyrrole-2-carboxamide]	960	–
Cc1ncccc1NC(=O)c1cc(C(=O)c2c(F)cccc2Br)c[nH]1 [Example 149, 4-(2-Bromo-6-fluorobenzoyl)-N-(2-methylpyridin-3-yl)-1H-pyrrole-2-carboxamide]	2390	–
Cc1ccc(NC(=O)c2cc(C(=O)c3c(F)cccc3Cl)c[nH]2)cn1 [Example 150, 4-(2-Chloro-6-fluorobenzoyl)-N-(6-methylpyridin-3-yl)-1H-pyrrole-2-carboxamide]	1030	–
O=C(Nc1ccc(F)nc1)c1cc(C(=O)c2c(F)cccc2Cl)c[nH]1 [Example 152, 4-(2-Chloro-6-fluorobenzoyl)-N-(6-fluoropyridin-3-yl)-1H-pyrrole-2-carboxamide]	1490	–
O=C(Nc1ccc(F)nc1)c1cc(C(=O)c2c(F)cccc2Br)c[nH]1 [Example 153, 4-(2-Bromo-6-fluorobenzoyl)-N-(6-fluoropyridin-3-yl)-1H-pyrrole-2-carboxamide]	1700	–
Cc1ncc(NC(=O)c2cc(C(=O)c3c(F)cccc3Br)c[nH]2)cn1 [Example 155, 4-(2-Bromo-6-fluorobenzoyl)-N-(2-methylpyrimidin-5-yl)-1H-pyrrole-2-carboxamide]	1190	–
O=C(Nc1ccc2cn[nH]c2c1)c1cc(C(=O)c2c(F)cccc2Cl)c[nH]1 [Example 156, 4-(2-Chloro-6-fluorobenzoyl)-N-(1H-indazol-6-yl)-1H-pyrrole-2-carboxamide]	1540	–
O=C(Nc1ccc2cn[nH]c2c1)c1cc(C(=O)c2c(F)cccc2Br)c[nH]1 [Example 157, 4-(2-Bromo-6-fluorobenzoyl)-N-(1H-indazol-6-yl)-1H-pyrrole-2-carboxamide]	7160	–
O=C(Nc1ccncc1)c1cc(C(=O)c2cccc(Cl)c2Cl)c[nH]1 [Example 158, 4-(2,3-Dichlorobenzoyl)-N-(pyridin-4-yl)-1H-pyrrole-2-carboxamide]	5470	–
CCc1ccc(F)c(C(=O)c2c[nH]c(C(=O)Nc3cccnc3)c2)c1F [Example 162]	1330	–
